In PubChem BioAssay AID2060495 (Molecular Pharmacology Branch, DTP, NCI, 2025):
Where “and” joins values, the source holds several entries; their conditions need not be identical. Equal entries are not always repeated.

Test system: 521955-158-R2-J5-PDC complex spheroid viability
Assay: Anticancer human tumor 521955-158-R2-J5-PDC patient-derived pancreatic carcinoma cell line growth inhibition [GQUAD]
Conditions: for viability, T/C: stronger effect = lower value
From the text: DNA G-quadruplex Stabilizer Agents in Combinations in Complex Spheroids
A high-throughput screen of multi-cell type tumor spheroids was designed to identify active combinations of DNA G-quadruplex stabilizer agents and targeted small molecules. Complex spheroids include a stromal component modeled by human endothelial cells (HUVEC) and fibroblasts modeled by human mesenchymal stem cells (MSCs). The concentration ranges selected for each drug and investigational agent were based upon clinically achievable concentrations if the clinical Cmax of the agent was known.
Compounds. The drugs and investigational agents: pidnarulex (CX-5461; NSC782164), APTO-253 (NSC789042), BRACO-19 (NSC847499), peposertib (NSC802822), ceralasertib (NSC780249), elimusertib (NSC800525), camonsertib (NSC841442), AZD-1390 (NSC803789), olaparib (NSC753686), talazoparib (NSC767125), ART-558 (NSC835418), sotorasib (NSC818433), MRTX-1133 (NSC836407), SN-38 (NSC673596), topotecan (NSC609699), etoposide (NSC141540), doxorubicin (NSC123127), gemcitabine (NSC613327), 5-fluorouracil (NSC19893), paclitaxel (NSC125973), vemurafenib (NSC761431), panobinostat (NSC761190), R-306465 (JNJ-16241199; NSC773264), adavosertib (NSC754352), TP-3654 (NSC805149), carboplatin (NSC241240), KSQ-4279 (NSC840948), and staurosporine (NSC755774) were obtained from the National Cancer Institute (NCI) Developmental Therapeutics Program Chemical Repository (34). The FDA-approved anticancer drug set is available from the NCI Developmental Therapeutics Program. […] The stock solutions were prepared in dimethyl sulfoxide (DMSO, Sigma-Aldrich, St. Louis, MO, cat. D2650) at 800-fold the tested concentration and stored at -70 degrees C prior to their use. All drugs and investigational agents were tested over a range starting from a high concentration at or near the clinical Cmax and decreasing in half-log increments. If the clinical Cmax for an agent had not been determined, the highest concentration tested was 10 microM.
2.3 Cell Culture. All cells were maintained in an incubator at 37 degrees C and 5% CO2 with 95% humidity. The PDC lines were cultured according to standard operating procedures established by the NCI PDMR. All PDCs were thawed and cultured in Matrigel-coated flasks prepared with a working solution of 1X Ham's F-12 nutrient mix, without supplementation (Invitrogen, cat. 11765054), 100 U/mL penicillin-streptomycin (Invitrogen, cat. 15140122), and 2.5% Matrigel (Corning Inc., cat. 354248) for the first three passages. The 857933-349-R-J2-PDC line was cultured in 6C/Colon 1B media, which includes advanced DMEM/F-12 (Thermo Fisher Scientific, cat. 12634028), 10 mM HEPES (Thermo Fisher Scientific, cat. 15630080), 1X GlutaMAX supplement (Thermo Fisher Scientific, cat. 35050061), 0.1 mg/mL primocin (InvivoGen, cat. ant-pm-2), 10% defined fetal bovine serum, heat inactivated (HyClone Laboratories Inc., cat. SH30070.03HI), 50% L-WRN conditioned media (ATCC, cat. CRL-3276), 1.25 mM N-Acetyl-L-cysteine (Sigma-Aldrich, cat. A9165), 10 mM nicotinamide (Sigma-Aldrich, cat. N0636), 1X B-27 supplement (Thermo Fisher Scientific, cat. 17504044), 1X N-2 supplement (Thermo Fisher Scientific, cat. 17502048), 10 microM Y-27632 dihydrochloride (Tocris Bioscience, cat. 1254), and 50 ng/mL human EGF recombinant protein (Thermo Fisher Scientific, cat. PHG0311). The 485176-168-R4-J1-PDC line was cultured in Panc media, which includes all 6C/Colon 1B media components plus 100 ng/mL human FGF-10 (Thermo Fisher Scientific, cat. 100-26), 500 nM SB-431542 (Selleckchem, cat. S1067), and gastrin (Tocris, cat. 3006).
[…]

[1] = curve of first compound, second compound 0.0316 µM
[2] = curve of first compound, second compound 0.1 µM
[3] = curve of first compound, second compound 0.316 µM
[4] = curve of first compound, second compound 1 µM
[5] = curve of first compound, second compound 3.16 µM
[6] = curve of first compound, second compound 10 µM
[7] = second compound 0.0316 µM, first compound 0.0316 µM
[8] = second compound 0.0316 µM, first compound 0.316 µM
[9] = second compound 0.1 µM, first compound 0.0316 µM
[10] = second compound 0.1 µM, first compound 0.316 µM
[11] = second compound 0.316 µM, first compound 0.0316 µM
[12] = second compound 0.316 µM, first compound 0.316 µM
[13] = second compound 1 µM, first compound 0.0316 µM
[14] = second compound 1 µM, first compound 0.316 µM
[15] = second compound 3.16 µM, first compound 0.0316 µM
[16] = second compound 3.16 µM, first compound 0.316 µM
[17] = second compound 10 µM, first compound 0.0316 µM
[18] = second compound 10 µM, first compound 0.316 µM
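Further: spheroids exposed to agents for one week before reading.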
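Wherever viability, T/C is given: 100% = DMSO vehicle control viability.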

CC[C@@]1(O)C(=O)OCc2c1cc1n(c2=O)Cc2cc3c(CN(C)C)c(O)ccc3nc2-1 + CN(C)c1ccc(Nc2c3ccc(NC(=O)CCN4CCCC4)cc3nc3cc(NC(=O)CCN4CCCC4)ccc23)cc1
IC50 [1]: 121 nM
IC50 [2]: 93.7 nM
IC50 [3]: 86.4 nM
IC50 [4]: 96.7 nM
IC50 [5]: 80.1 nM
IC50 [6]: 79.3 nM
viability, T/C (second compound 0.0316 µM, first compound 0.000999 µM): 106%
viability, T/C (second compound 0.0316 µM, first compound 0.00316 µM): 118%
viability, T/C (second compound 0.0316 µM, first compound 0.00999 µM): 110%
viability, T/C [7]: 86.7%
viability, T/C (second compound 0.0316 µM, first compound 0.0999 µM): 55.8%
viability, T/C [8]: 28.2%
viability, T/C (second compound 0.1 µM, first compound 0.000999 µM): 85.3%
viability, T/C (second compound 0.1 µM, first compound 0.00316 µM): 108%
viability, T/C (second compound 0.1 µM, first compound 0.00999 µM): 95.1%
viability, T/C [9]: 82.2%
viability, T/C (second compound 0.1 µM, first compound 0.0999 µM): 48.2%
viability, T/C [10]: 41.2%
viability, T/C (second compound 0.316 µM, first compound 0.000999 µM): 101%
viability, T/C (second compound 0.316 µM, first compound 0.00316 µM): 98.5%
viability, T/C (second compound 0.316 µM, first compound 0.00999 µM): 98.7%
viability, T/C [11]: 89.4%
viability, T/C (second compound 0.316 µM, first compound 0.0999 µM): 44.3%
viability, T/C [12]: 28.6%
viability, T/C (second compound 1 µM, first compound 0.000999 µM): 131%
viability, T/C (second compound 1 µM, first compound 0.00316 µM): 91.6%
viability, T/C (second compound 1 µM, first compound 0.00999 µM): 95.7%
viability, T/C [13]: 82.8%
viability, T/C (second compound 1 µM, first compound 0.0999 µM): 43.1%
viability, T/C [14]: 24.9%
viability, T/C (second compound 3.16 µM, first compound 0.000999 µM): 101%
viability, T/C (second compound 3.16 µM, first compound 0.00316 µM): 101%
viability, T/C (second compound 3.16 µM, first compound 0.00999 µM): 81.2%
viability, T/C [15]: 76.9%
viability, T/C (second compound 3.16 µM, first compound 0.0999 µM): 41.2%
viability, T/C [16]: 26.5%
viability, T/C (second compound 10 µM, first compound 0.000999 µM): 63.7%
viability, T/C (second compound 10 µM, first compound 0.00316 µM): 62.3%
viability, T/C (second compound 10 µM, first compound 0.00999 µM): 53.4%
viability, T/C [17]: 63.5%
viability, T/C (second compound 10 µM, first compound 0.0999 µM): 45.2%
viability, T/C [18]: 31.4%

C=CCn1c(=O)c2cnc(Nc3ccc(N4CCN(C)CC4)cc3)nc2n1-c1cccc(C(C)(C)O)n1 + Cc1[nH]c2ccc(F)cc2c1-c1nc2c3cccnc3c3ncccc3c2[nH]1
IC50 [1]: 217 nM
IC50 [2]: 182 nM
IC50 [3]: 177 nM
IC50 [4]: 175 nM
IC50 [5]: 159 nM
IC50 [6]: 192 nM
viability, T/C [7]: 103%
viability, T/C (second compound 0.0316 µM, first compound 0.1 µM): 84.9%
viability, T/C [8]: 33.1%
viability, T/C (second compound 0.0316 µM, first compound 1 µM): 14.6%
viability, T/C (second compound 0.0316 µM, first compound 3.16 µM): 12.6%
viability, T/C (second compound 0.0316 µM, first compound 10 µM): 12.1%
viability, T/C [9]: 95.1%
viability, T/C (second compound 0.1 µM, first compound 0.1 µM): 75.8%
viability, T/C [10]: 25.8%
viability, T/C (second compound 0.1 µM, first compound 1 µM): 15.8%
viability, T/C (second compound 0.1 µM, first compound 3.16 µM): 11.1%
viability, T/C (second compound 0.1 µM, first compound 10 µM): 10.5%
viability, T/C [11]: 79.9%
viability, T/C (second compound 0.316 µM, first compound 0.1 µM): 66.6%
viability, T/C [12]: 33.2%
viability, T/C (second compound 0.316 µM, first compound 1 µM): 15.2%
viability, T/C (second compound 0.316 µM, first compound 3.16 µM): 13.2%
viability, T/C (second compound 0.316 µM, first compound 10 µM): 12.1%
viability, T/C [13]: 84.1%
viability, T/C (second compound 1 µM, first compound 0.1 µM): 75.4%
viability, T/C [14]: 23.4%
viability, T/C (second compound 1 µM, first compound 1 µM): 12.8%
viability, T/C (second compound 1 µM, first compound 3.16 µM): 12.6%
viability, T/C (second compound 1 µM, first compound 10 µM): 10.4%
viability, T/C [15]: 77%
viability, T/C (second compound 3.16 µM, first compound 0.1 µM): 60.4%
viability, T/C [16]: 34.8%
viability, T/C (second compound 3.16 µM, first compound 1 µM): 15%
viability, T/C (second compound 3.16 µM, first compound 3.16 µM): 15.3%
viability, T/C (second compound 3.16 µM, first compound 10 µM): 19.6%
viability, T/C [17]: 68.7%
viability, T/C (second compound 10 µM, first compound 0.1 µM): 68.3%
viability, T/C [18]: 36.5%
viability, T/C (second compound 10 µM, first compound 1 µM): 18.2%
viability, T/C (second compound 10 µM, first compound 3.16 µM): 14%
viability, T/C (second compound 10 µM, first compound 10 µM): 15.6%

CC(=O)O[C@H]1C(=O)[C@@]2(C)[C@H]([C@H](OC(=O)c3ccccc3)[C@]3(O)C[C@H](OC(=O)[C@H](O)[C@@H](NC(=O)c4ccccc4)c4ccccc4)C(C)=C1C3(C)C)[C@]1(OC(C)=O)CO[C@@H]1C[C@@H]2O
viability, T/C (compound 0.0316 µM): 55.7% and 44.9% and 22.1%
viability, T/C (compound 0.1 µM): 41.9% and 46.4% and 14.2%
viability, T/C (compound 0.316 µM): 27.7% and 32.3% and 8.41%
viability, T/C (compound 1 µM): 33.1% and 30.1% and 9.52%
viability, T/C (compound 3.16 µM): 22.9% and 28.9% and 11.5%
viability, T/C (compound 10 µM): 29.9% and 31.3% and 16%
IC50 (curve of compound): 50.9 nM and < 31.6 nM

Cc1cccc(N(C)C(=O)C2C(O)CCN2c2nc(C)cc(C(F)(F)F)c2C#N)c1 (stereo not drawn)
viability, T/C (compound 0.0316 µM): 120% and 113% and 96.8%
viability, T/C (compound 0.1 µM): 86.4% and 98.3% and 105%
viability, T/C (compound 0.316 µM): 90% and 104% and 107%
viability, T/C (compound 1 µM): 98.8% and 98.2% and 100%
viability, T/C (compound 3.16 µM): 120% and 115% and 123%
viability, T/C (compound 10 µM): 118% and 110% and 140%
IC50 (curve of compound): > 10000 nM
